In ChEMBL document CHEMBL4152189, “Incorporation of nitric oxide donor into 1,3-dioxyxanthones leads to synergistic anticancer activity” (Eur J Med Chem, 2018):

Columns and labels:
Assay type in all cases: functional, cell-based
MDA-MB-231 = assay: Growth inhibition of human MDA-MB-231 cells after 24 hrs by MTT assay; conditions: MDA-MB-231, 24 h
HepG2 = assay: Growth inhibition of human HepG2 cells after 24 hrs by MTT assay; conditions: HepG2, 24 h
MCF7 = assay: Growth inhibition of human MCF7 cells after 24 hrs by MTT assay; conditions: MCF7, 24 h

Structure (SMILES) | IC50 (MDA-MB-231) [µM] | IC50 (HepG2) [µM] | IC50 (MCF7) [µM]
O=c1c2cc(O)ccc2oc2cc(OCCCCO[N+](=O)[O-])cc(O)c12 | 92.6 | 22.3 | 143
O=c1c2ccc(O)cc2oc2cc(OCCCCCO[N+](=O)[O-])cc(O)c12 | 41.4 | 62.3 | 112
Cc1ccc2c(=O)c3c(O)cc(OCCCCCO[N+](=O)[O-])cc3oc2c1 | 30.7 | 2.95 | 39.5
O=c1c2ccccc2oc2cc(OCCCCCCCO[N+](=O)[O-])cc(O)c12 | 43.5 | 5.24 | 153
O=c1c2cc(O)ccc2oc2cc(OCCCCCO[N+](=O)[O-])cc(O)c12 | 44.6 | 9.91 | 91.2
COc1ccc2oc3cc(O)cc(O)c3c(=O)c2c1 | > 200 | 93.2 | > 200
O=c1c2ccc(O)cc2oc2cc(OCCO[N+](=O)[O-])cc(O)c12 | 108 | 160 | > 200
O=c1c2ccccc2oc2cc(OCCO[N+](=O)[O-])cc(O)c12 | 90.9 | 20.5 | > 200
Cc1ccc2c(=O)c3c(O)cc(OCCCCO[N+](=O)[O-])cc3oc2c1 | 62.9 | 10.6 | 47.7
O=c1c2ccccc2oc2cc(OCCCCCCO[N+](=O)[O-])cc(O)c12 | 23.5 | 3.17 | 93.1
COc1cccc2oc3cc(O)cc(O)c3c(=O)c12 | 66 | 32.5 | > 200
Cc1ccc2c(=O)c3c(O)cc(OCCCCCCCO[N+](=O)[O-])cc3oc2c1 | 55.9 | 8.76 | 42.7
O=c1c2cc(Br)ccc2oc2cc(OCCCO[N+](=O)[O-])cc(O)c12 | 43.6 | 14 | > 200
O=c1c2cc(O)ccc2oc2cc(O)cc(O)c12 | > 200 | > 200 | > 200
O=c1c2cc(O)ccc2oc2cc(OCCCO[N+](=O)[O-])cc(O)c12 | 134 | 33 | > 200
O=c1c2ccccc2oc2cc(OCCCCO[N+](=O)[O-])cc(O)c12 | 56.6 | 6.55 | > 200
COc1cc2oc3cc(OCCCCO[N+](=O)[O-])cc(O)c3c(=O)c2cc1OC | 87.4 | 21.2 | > 200
Cc1ccc2c(=O)c3c(O)cc(OCCCO[N+](=O)[O-])cc3oc2c1 | 78.4 | 12.8 | 62.8
O=c1c2ccc(O)cc2oc2cc(OCCCCCCCO[N+](=O)[O-])cc(O)c12 | 51.5 | 76.2 | > 200

Structure (SMILES) | IC50 (MDA-MB-231) [µM] | IC50 (HepG2) [µM] | IC50 (MCF7) [µM]
COc1ccc2oc3cc(OCCCCO[N+](=O)[O-])cc(O)c3c(=O)c2c1 | 22.3 | 52.1 | 83.2
O=c1c2cc(O)ccc2oc2cc(OCCCCCCCO[N+](=O)[O-])cc(O)c12 | 74.3 | 15.2 | 112
O=[N+]([O-])OCCCCO | 157 | 90.8 | > 200
O=c1c2cc(Cl)ccc2oc2cc(OCCCO[N+](=O)[O-])cc(O)c12 | 27.8 | 17.4 | 53.4
O=c1c2ccc(O)cc2oc2cc(OCCCO[N+](=O)[O-])cc(O)c12 | 82.7 | 116 | > 200
COc1cc2oc3cc(OCCCCCCCO[N+](=O)[O-])cc(O)c3c(=O)c2cc1OC | 67.6 | 13.2 | 163
COc1cccc2oc3cc(OCCCCCO)cc(O)c3c(=O)c12 | 41.1 | 23.7 | > 200
O=c1c2ccc(O)cc2oc2cc(O)cc(O)c12 | > 200 | > 200 | > 200
O=c1c2ccc(O)cc2oc2cc(OCCCCO[N+](=O)[O-])cc(O)c12 | 66.7 | 96 | > 200
O=c1c2cc(Cl)ccc2oc2cc(OCCO[N+](=O)[O-])cc(O)c12 | 33.3 | 43.1 | 74.3
COc1ccc2oc3cc(OCCCO[N+](=O)[O-])cc(O)c3c(=O)c2c1 | 35.6 | 63.5 | 98.2
O=[N+]([O-])OCCCCCCO | 90.4 | 52.6 | 89.7
COc1cc2oc3cc(O)cc(O)c3c(=O)c2cc1OC | > 200 | 123 | > 200
COc1cc2oc3cc(OCCCCCO[N+](=O)[O-])cc(O)c3c(=O)c2cc1OC | 45.6 | 6.35 | > 200
O=c1c2ccccc2oc2cc(OCCCO[N+](=O)[O-])cc(O)c12 | 83.9 | 12.3 | > 200
O=c1c2ccccc2oc2cc(OCCCCCO[N+](=O)[O-])cc(O)c12 | 40.7 | 4.08 | > 200
COc1cc2oc3cc(OCCO[N+](=O)[O-])cc(O)c3c(=O)c2cc1OC | 130 | 91.7 | > 200
COc1cc2oc3cc(OCCCO[N+](=O)[O-])cc(O)c3c(=O)c2cc1OC | 112 | 53.6 | > 200
O=[N+]([O-])OCCCO [ABRUCOMSTAT] | > 200 | 111 | > 200

Stronger by IC50 (MDA-MB-231), values ahead:

IC50 (MDA-MB-231) [µM] | IC50 (HepG2) [µM] | IC50 (MCF7) [µM] | Structure (SMILES)
4.29 | 5.26 | 53.5 | COc1cccc2oc3cc(OCCCCCCCO[N+](=O)[O-])cc(O)c3c(=O)c12
3.05 | 13.6 | 41.1 | COc1ccc2oc3cc(OCCCCCCO[N+](=O)[O-])cc(O)c3c(=O)c2c1
18.5 | 11.4 | 53.7 | O=c1c2cc(O)ccc2oc2cc(OCCCCCCO[N+](=O)[O-])cc(O)c12
19.8 | 1.83 | 98.2 | COc1cc2oc3cc(OCCCCCCO[N+](=O)[O-])cc(O)c3c(=O)c2cc1OC
9.27 | 7.28 | 35.9 | O=c1c2cc(Br)ccc2oc2cc(OCCCCCCCO[N+](=O)[O-])cc(O)c12
11.1 | 2.65 | 73.2 | O=c1c2cc(Br)ccc2oc2cc(OCCCCCO[N+](=O)[O-])cc(O)c12
9.68 | 13.6 | 102 | COc1cccc2oc3cc(OCCCO[N+](=O)[O-])cc(O)c3c(=O)c12
9.74 | 6.03 | 13.3 | O=c1c2cc(Cl)ccc2oc2cc(OCCCCCCO[N+](=O)[O-])cc(O)c12
11.2 | 21.5 | 104 | COc1cccc2oc3cc(OCCO[N+](=O)[O-])cc(O)c3c(=O)c12
11.2 | 10.1 | 42.9 | O=c1c2cc(Br)ccc2oc2cc(OCCCCO[N+](=O)[O-])cc(O)c12
11.2 | 10.1 | 42.9 | O=c1c2cc(Cl)ccc2oc2cc(OCCCCO[N+](=O)[O-])cc(O)c12
10.2 | 8.13 | 30.8 | O=c1c2cc(Cl)ccc2oc2cc(OCCCCCCCO[N+](=O)[O-])cc(O)c12
7.79 | 5.32 | 25.1 | O=c1c2cc(Cl)ccc2oc2cc(OCCCCCO[N+](=O)[O-])cc(O)c12
6.25 | 10.2 | 63 | COc1cccc2oc3cc(OCCCCO[N+](=O)[O-])cc(O)c3c(=O)c12
10.3 | 1.28 | 35.1 | Cc1ccc2c(=O)c3c(O)cc(OCCCCCCO[N+](=O)[O-])cc3oc2c1
9.29 | 33.3 | 53.4 | COc1ccc2oc3cc(OCCCCCO[N+](=O)[O-])cc(O)c3c(=O)c2c1
10.6 | 26.4 | > 200 | O=c1c2ccc(O)cc2oc2cc(OCCCCCCO[N+](=O)[O-])cc(O)c12
16.2 | 42.1 | 71.2 | COc1ccc2oc3cc(OCCCCCCCO[N+](=O)[O-])cc(O)c3c(=O)c2c1
0.45 | 0.61 | 31 | COc1cccc2oc3cc(OCCCCCCO[N+](=O)[O-])cc(O)c3c(=O)c12
15 | 1.21 | 43.5 | O=c1c2cc(Br)ccc2oc2cc(OCCCCCCO[N+](=O)[O-])cc(O)c12
